Results: patent publication US11850259B2, “Methods of treating viral infections affecting the respiratory tract using topically administered lithium agents” (United States Government as Represented by the Department …, priority 2020, dated 2023)
Where two headings read alike, the source gives them in different places.

Tests used:
[1] = tested on: MSU-induced gout in the rat ankle; settings: for KC-GRO (KC/GRO) level: synovial fluid, eight hours post MSU-induced gout
[2] = applied to the epithelium of the skin, gout model
Text: Once that occurred, the lithium acted on the tissues and blood vessels surrounding the joint, preventing the entry of the inflammatory cells into the joint.

GSK3B = GSK3B (Homo sapiens, UniProt P49841); settings: in neutrophils; cited from earlier work
Sequence of GSK3B (P49841 whole entry, species assumed): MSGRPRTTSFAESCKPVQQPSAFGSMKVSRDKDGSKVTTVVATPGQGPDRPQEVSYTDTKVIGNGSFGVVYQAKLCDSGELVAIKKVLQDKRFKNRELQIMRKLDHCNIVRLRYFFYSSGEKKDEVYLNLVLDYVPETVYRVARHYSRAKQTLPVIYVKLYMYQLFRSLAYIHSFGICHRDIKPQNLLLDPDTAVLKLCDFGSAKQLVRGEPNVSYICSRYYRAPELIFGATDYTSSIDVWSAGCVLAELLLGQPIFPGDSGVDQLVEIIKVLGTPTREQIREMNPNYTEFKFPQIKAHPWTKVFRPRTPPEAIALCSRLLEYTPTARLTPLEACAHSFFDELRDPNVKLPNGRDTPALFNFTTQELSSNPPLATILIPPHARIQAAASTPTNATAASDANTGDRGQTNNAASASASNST

[3] = tested on: MSU-induced gout in the rat ankle; settings: photomicrograph at 2-times magnification after topical administration
Text: It was anticipated that the pathology may bring additional clarity to show lithium carbonate's action on the cytokine storm. Rat ankle samples banked in formalin were sent for microscopic analysis.

[4] = serum of subjects tested; cited from earlier work
[5] = BRT rat MSU model, eight hours post MSU, topical application

Question: What does the source list for `O=C([O-])[O-].[Li+].[Li+]` [lithium carbonate]?
Answer: IL-1β level [1, 5]: induction; IL-6 level [1, 5]: induction; TNF-α level [1, 5]: induction; KC-GRO (KC/GRO) level ([1]; rat ankle, topical application): Attenuation; KC-GRO (KC/GRO) level ([1]; rat ankle, topical application, listed as lithium): surprisingly lessened; Effect on gout ([1]; topical application of 2% lithium carbonate, rat ankle): attenuated gout; Penetration of skin epithelium [2]: penetrated to the synovium; Increase of TNF-α protein synthesis (GSK3B): > 3 fold; Edema [3]: minimal edema; Raft of white blood cells [3]: only a very small raft of white blood cells; Synovial hypertrophy [3]: minimal synovial hypertrophy; IL-1β in serum [4]: consistent increase; IL-6 in serum [4]: consistent increase; TNF-α in serum [4]: consistent increase
